Data on two compounds can be found in patent publication US20230406840A1, “N-(2-(3-CYANO-2-AZABICYCLO[3.1.0]HEXAN-2-YL)-2-OXOETHYL)QUINOLINE-4-CARBOXAMIDES” (AstraZeneca AB, priority 2022, published 2023).

For data set [1], the target named is human dipeptidylpeptidase 8 (hDPP8) (Homo sapiens (Human), UniProt Q6V1X1). In words: hDPP8 inhibition assay. The following applies: single concentration 10 μM; n = 1. The data set is classed as biochemical. The procedure: Compounds were tested in a biochemical inhibition assay using human dipeptidylpeptidase 8 (hDPP8) enzyme (BPS Bioscience, #80800) and the substrate Gly-Pro-amino-methylcoumarin (Enzo #BML-P189-0005) at 10 μM FAC. The enzymatic reactions were conducted in duplicate at rt for 20 min in 50 μL assay buffer (50 mM Tris, pH 7.5, 0.1% BSA). Compound solutions (in DMSO), were prepared in assay buffer ten-fold higher than the final concentration, and 5 μL of the dilution was added to a 50 μL reaction so that the compound concentration was 10 μM FAC and the concentration of DMSO was 1% in all wells. The plates were read on a PHERAstarPLUS (BMG) using kinetic mode with excitation 340 nm and emission 460 nm. Data were analyzed in Graph Pad Prism. Raw data signals were normalized using 1% DMSO as 0% control and no enzyme as 100% inhibitor control.
Sequence of human dipeptidylpeptidase 8 (hDPP8) (Q6V1X1 whole entry): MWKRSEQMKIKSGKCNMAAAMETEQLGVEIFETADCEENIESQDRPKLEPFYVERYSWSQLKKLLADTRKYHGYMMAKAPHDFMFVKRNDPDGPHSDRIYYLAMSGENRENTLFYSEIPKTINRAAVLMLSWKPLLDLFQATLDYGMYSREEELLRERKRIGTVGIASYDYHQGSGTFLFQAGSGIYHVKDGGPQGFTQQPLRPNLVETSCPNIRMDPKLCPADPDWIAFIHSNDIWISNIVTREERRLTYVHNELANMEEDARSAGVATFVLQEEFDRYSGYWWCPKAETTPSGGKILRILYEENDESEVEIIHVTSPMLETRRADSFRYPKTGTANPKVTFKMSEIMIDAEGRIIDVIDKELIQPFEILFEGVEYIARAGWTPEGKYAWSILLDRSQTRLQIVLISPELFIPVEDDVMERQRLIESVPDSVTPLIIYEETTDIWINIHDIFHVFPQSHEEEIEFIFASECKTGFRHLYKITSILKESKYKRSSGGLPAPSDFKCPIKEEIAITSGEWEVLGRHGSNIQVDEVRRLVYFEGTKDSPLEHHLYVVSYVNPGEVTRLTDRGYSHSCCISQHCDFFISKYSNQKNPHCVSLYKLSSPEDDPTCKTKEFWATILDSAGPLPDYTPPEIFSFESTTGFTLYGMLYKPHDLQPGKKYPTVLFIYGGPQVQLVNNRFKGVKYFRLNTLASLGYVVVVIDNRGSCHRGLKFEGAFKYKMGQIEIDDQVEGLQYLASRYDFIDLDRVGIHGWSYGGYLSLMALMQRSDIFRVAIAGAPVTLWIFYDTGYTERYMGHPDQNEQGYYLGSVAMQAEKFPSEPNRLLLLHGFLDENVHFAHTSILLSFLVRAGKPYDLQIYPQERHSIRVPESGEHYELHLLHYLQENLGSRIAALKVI

The next data set concerns Human Hepatocytes (hHep). Kind of data set: Metabolic stability in human hepatocytes (hHep). The data set is classed as in vitro ADME. The procedure:
Metabolic stability in human hepatocytes was measured as described in Xenobiotica 2010, 40, 637.

Data set [2] addresses human dipeptidylpeptidase 9 (hDPP9) (Homo sapiens (Human), UniProt Q86TI2). In words: hDPP9 inhibition assay. The following applies: highest compound concentration 10 μM; n = 1. It is filed as biochemical. The method, then:
Compounds were tested in a biochemical inhibition assay using human dipeptidylpeptidase 9 (hDPP9) enzyme (R&D, #5419-SE-010) and the substrate Gly-Pro-amino-methylcoumarin (Enzo #BML-P189-0005) at 10 μM FAC. The enzymatic reactions were conducted in duplicate at rt for 30 min in 50 μL assay buffer (50 mM Tris, pH 7.5, 0.1% BSA). Compound solutions (in DMSO) at 10 CR, 3-fold dilution series were prepared in assay buffer ten-fold higher than the final concentration, and 5 μL of the dilution was added to a 50 μL reaction so that the highest compound concentration was 10 μM FAC and the concentration of DMSO was 1% in all wells. The plates were read on a PHERAstarPLUS (BMG) using kinetic mode with excitation 340 nm and emission 460 nm. Data were analyzed in Graph Pad Prism. […] Raw data signals were normalized using 1% DMSO as 0% control and no enzyme as 100% inhibitor control.

The target in data set [3] is human Fibroblast activation protein alpha (hFAP) (Homo sapiens (Human), UniProt Q12884). In words: hFAP inhibition assay (tight binders). The following applies: tight-binder format, Ala-Pro-AMC 20 μM, 2.5 h incubation; n = 1 or geometric mean (n = 5-10). It is filed as biochemical. The procedure:
Data were analyzed in Genedata Screener®.

Data set [4] deals with human dipeptidylpeptidase 7 (hDPP7) (Homo sapiens (Human), UniProt Q9UHL4). In words: hDPP7 inhibition assay. It is filed as biochemical. Conditions: highest compound concentration 10 μM; n = 1. The procedure: Compounds were tested in a biochemical inhibition assay using human dipeptidylpeptidase 7 (hDPP7) enzyme (BPS Bioscience, #80070) and the substrate Ala-Pro-amino-methylcoumarin (BPS Bioscience, #80305) at 10 μM FAC. The enzymatic reactions were conducted in duplicate at rt for 20 min in 50 μL assay buffer (10 mM Tris-HCl, pH 7.4, 10 mM MgCl2, 1 mM MnCl2). Compound solutions (in DMSO) at 10 CR, 3-fold dilution series were prepared in assay buffer ten-fold higher than the final concentration, and 5 μL of the dilution was added to a 50 μL reaction so that the highest compound concentration was 10 μM FAC and the concentration of DMSO was 1% in all wells. The plates were read on a PHERAstarPLUS (BMG) using kinetic mode with excitation 340 nm and emission 460 nm. Data were analyzed in Graph Pad Prism. Raw data signals were normalized using 1% DMSO as 0% control and no enzyme as 100% inhibitor control.

Another data set relates to Rat Hepatocytes (rHep). In words: Metabolic stability in rat hepatocytes (rHep). The data set is classed as in vitro ADME. The method, then: Metabolic stability in rat hepatocytes was measured as described in J Comput Aided Mol Des 2015, 29, 795.
The target of a further data set is hFAP (Homo sapiens (Human), UniProt Q12884).
Sequence of hFAP (Q12884 38-760): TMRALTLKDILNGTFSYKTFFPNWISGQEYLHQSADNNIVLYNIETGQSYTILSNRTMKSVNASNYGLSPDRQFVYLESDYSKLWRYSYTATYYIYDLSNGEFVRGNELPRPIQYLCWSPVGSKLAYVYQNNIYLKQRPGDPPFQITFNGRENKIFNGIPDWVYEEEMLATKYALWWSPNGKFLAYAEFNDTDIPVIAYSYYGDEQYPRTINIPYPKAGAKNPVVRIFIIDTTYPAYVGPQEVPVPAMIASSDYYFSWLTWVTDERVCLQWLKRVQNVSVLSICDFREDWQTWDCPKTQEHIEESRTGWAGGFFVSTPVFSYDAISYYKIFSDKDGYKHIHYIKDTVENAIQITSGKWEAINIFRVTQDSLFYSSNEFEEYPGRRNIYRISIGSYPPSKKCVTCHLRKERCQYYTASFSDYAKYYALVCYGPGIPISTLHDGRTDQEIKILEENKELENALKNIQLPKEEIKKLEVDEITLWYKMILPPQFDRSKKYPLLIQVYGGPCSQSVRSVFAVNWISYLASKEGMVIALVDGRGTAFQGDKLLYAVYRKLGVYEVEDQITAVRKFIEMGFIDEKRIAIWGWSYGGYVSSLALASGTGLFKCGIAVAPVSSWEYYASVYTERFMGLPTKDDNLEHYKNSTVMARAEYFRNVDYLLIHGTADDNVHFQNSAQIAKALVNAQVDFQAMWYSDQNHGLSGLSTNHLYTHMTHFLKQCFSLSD
For data set [5], the target named is Prolyl Oligopeptidase (hPREP) (Homo sapiens (Human), UniProt P48147). In words: hPREP inhibition assay. The following applies: hPREP 0.6 nM, Z-Gly-Pro-amino-methylcoumarin 50 μM; read-out: PREP IC50. It is filed as biochemical. The procedure, abridged:
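Recombinant human PREP at 0.6 nM final, with Z-Gly-Pro-AMC substrate at 50 μM final. Buffer: 25 mM Tris HCl pH 7.5, 250 mM NaCl, 0.01% Triton X-100, 5 mM glutathione. Incubated 20 min at rt in the dark; fluorogenic AMC release read.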

Another data set addresses FAP Human Plasma (Homo sapiens (Human), UniProt Q12884). In words: FAP plasma inhibition assay, human plasma. The data set is classed as biochemical. Conditions: human plasma dilution 1:40, Ala-Pro-AMC 75 μM; n = 1. The method, then: This assay was adapted from the method described in Example 53 for detection of FAP target engagement enzyme activity in plasma. Plasma (anticoagulant K2EDTA) was used as the enzyme source: Human plasma (Pooled from AZ Biobank) and Mouse plasma (AZ AST Biobank). 384-Well black fluotrack PS plates (Greiner 781076) were used. 20 μL diluted plasma (Human plasma dilution 1:40, Mouse plasma dilution 1:67) in buffer (PBS, 0.1% BSA) was added to 0.6 μL compounds (in DMSO). Compounds were tested using 10 CR, 3-fold dilution series from 500 nM FAC. Two replicates for each assay point were run on the same plate. A fluorescence blank read was taken before substrate addition. Substrate, Ala-Pro-AMC (ARI-3144) stock solution (20 mM in DMSO) was diluted in buffer (PBS, 0.1% BSA) to 150 μM concentration and 20 μL added giving 75 μM FAC. Plates were incubated for 40 min at rt in the dark. The plates were read on a Beckman Paradigm® reader with excitation 360 nm and emission 465 nm. Data were analyzed in Excel (IDBS XLfit Add-In) using a one site dose response model (4-parameter logistic fit). […] Raw data signals were normalized using 1.5% DMSO in diluted plasma as 0% control and 1.5% DMSO in buffer (no plasma) as 100% inhibitor control.

Another data set concerns the target hFAP (M39-A757) (Homo sapiens (Human), UniProt Q12884).

Where only a bound is given, the exact number is not on record here.

Sequence of human Fibroblast activation protein alpha (hFAP) (Q12884 38-760): as above
Sequence of FAP Human Plasma (Q12884 24-760 limits assumed): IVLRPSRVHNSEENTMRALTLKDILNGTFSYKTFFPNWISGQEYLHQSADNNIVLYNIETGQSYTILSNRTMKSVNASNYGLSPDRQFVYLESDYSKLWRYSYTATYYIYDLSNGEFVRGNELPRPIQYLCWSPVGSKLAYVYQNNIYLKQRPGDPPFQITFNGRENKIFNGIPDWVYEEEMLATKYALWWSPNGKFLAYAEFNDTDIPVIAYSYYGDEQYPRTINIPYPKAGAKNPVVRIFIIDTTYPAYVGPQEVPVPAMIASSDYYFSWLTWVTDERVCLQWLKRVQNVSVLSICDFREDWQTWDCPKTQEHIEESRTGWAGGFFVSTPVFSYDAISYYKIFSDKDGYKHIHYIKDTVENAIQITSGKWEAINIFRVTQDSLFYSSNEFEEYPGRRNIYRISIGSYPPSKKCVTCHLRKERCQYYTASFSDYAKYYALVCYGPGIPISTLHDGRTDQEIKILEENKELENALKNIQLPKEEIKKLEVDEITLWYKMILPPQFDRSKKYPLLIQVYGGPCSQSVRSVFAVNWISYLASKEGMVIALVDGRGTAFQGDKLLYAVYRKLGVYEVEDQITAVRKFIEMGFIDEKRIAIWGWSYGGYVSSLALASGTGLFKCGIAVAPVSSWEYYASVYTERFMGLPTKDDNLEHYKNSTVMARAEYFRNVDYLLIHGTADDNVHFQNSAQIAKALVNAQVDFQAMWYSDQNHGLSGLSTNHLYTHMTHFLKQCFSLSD
Sequence of Prolyl Oligopeptidase (hPREP) (P48147 whole entry): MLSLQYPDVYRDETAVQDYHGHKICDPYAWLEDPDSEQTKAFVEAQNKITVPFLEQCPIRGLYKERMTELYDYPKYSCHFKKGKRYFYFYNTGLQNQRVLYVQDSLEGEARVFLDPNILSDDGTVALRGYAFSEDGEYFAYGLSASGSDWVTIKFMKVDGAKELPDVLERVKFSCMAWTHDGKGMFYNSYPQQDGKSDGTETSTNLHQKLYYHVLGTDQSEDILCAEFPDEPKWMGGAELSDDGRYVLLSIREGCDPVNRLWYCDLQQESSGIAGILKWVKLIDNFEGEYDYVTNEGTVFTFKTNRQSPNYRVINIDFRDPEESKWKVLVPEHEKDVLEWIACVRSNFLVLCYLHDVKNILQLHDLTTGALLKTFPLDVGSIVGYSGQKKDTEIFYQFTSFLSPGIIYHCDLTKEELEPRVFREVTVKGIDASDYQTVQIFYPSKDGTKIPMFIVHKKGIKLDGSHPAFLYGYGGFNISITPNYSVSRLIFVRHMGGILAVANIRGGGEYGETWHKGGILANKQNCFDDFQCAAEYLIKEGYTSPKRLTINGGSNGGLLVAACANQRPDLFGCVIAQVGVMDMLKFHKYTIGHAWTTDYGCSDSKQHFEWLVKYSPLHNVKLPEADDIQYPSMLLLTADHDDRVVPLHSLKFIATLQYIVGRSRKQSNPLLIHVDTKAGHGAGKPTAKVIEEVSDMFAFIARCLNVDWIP
Sequence of human dipeptidylpeptidase 9 (hDPP9) (Q86TI2 whole entry): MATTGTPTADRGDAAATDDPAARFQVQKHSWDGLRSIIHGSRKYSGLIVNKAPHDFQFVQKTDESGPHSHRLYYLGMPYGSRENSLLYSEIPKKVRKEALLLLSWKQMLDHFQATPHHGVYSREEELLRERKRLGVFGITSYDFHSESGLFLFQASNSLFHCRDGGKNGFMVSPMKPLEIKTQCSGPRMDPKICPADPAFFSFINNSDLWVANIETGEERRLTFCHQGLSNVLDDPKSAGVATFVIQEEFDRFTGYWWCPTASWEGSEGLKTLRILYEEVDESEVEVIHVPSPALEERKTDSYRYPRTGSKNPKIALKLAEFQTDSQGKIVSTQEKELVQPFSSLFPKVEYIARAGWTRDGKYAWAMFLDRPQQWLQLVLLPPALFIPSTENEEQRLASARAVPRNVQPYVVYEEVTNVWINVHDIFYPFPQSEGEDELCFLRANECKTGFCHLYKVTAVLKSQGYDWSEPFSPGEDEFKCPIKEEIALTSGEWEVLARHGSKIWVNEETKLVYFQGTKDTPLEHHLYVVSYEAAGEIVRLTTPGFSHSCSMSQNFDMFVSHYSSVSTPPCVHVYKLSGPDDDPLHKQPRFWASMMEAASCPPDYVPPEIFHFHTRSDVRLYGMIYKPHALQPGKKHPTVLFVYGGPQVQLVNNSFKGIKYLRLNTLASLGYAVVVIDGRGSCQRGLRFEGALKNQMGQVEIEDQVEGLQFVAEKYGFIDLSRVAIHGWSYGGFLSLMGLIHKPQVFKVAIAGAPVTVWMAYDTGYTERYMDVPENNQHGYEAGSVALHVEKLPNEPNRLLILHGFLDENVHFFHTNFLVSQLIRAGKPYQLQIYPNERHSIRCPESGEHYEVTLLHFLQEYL
Sequence of hFAP (M39-A757) (Q12884 39-757): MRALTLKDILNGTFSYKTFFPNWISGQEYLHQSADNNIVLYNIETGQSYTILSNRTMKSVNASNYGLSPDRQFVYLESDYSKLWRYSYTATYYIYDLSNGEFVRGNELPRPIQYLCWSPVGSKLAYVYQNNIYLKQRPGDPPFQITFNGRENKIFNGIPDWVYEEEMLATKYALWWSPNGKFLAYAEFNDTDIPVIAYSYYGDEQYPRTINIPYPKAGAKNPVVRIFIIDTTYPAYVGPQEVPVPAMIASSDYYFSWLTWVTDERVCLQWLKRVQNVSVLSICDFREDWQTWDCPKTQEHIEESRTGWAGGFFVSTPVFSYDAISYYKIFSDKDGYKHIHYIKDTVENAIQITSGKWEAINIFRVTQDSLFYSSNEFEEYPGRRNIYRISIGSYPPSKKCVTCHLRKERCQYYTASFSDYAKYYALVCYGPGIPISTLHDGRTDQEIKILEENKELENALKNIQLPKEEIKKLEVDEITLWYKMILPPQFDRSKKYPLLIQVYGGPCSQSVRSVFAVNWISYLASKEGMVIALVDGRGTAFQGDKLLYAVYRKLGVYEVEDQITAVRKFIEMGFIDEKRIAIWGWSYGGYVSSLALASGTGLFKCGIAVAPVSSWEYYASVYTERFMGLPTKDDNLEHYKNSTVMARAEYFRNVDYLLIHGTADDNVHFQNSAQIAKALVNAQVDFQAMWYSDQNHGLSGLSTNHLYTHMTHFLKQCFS
Method for hFAP (M39-A757): Compounds were tested in a direct binding assay using 8K surface plasmon resonance biosensor (GE Healthcare) at 20° C. Immobilization of hFAP (M39-A757) on a CMD200M sensor chip (Xantec) was performed using standard amine coupling procedure in immobilization buffer (10 mM HEPES, 150 mM NaCl, 0.05% Tween20, pH 7.4). The surface was washed with 10 mM NaOH, 1M NaCl before being activated with EDC/NHS (GE Healthcare), followed by immobilization of hFAP (in 10 mM Acetate pH 5.0). Finally, the surface was deactivated by ethanolamine. Immobilization levels of hFAP were around 4000-6000 RU. The reference spot was treated as described, omitting the injection of hFAP. Compound concentration series were injected over the immobilized protein in increasing concentrations (2-500 nM) using single cycle kinetics in running buffer (20 mM TRIS, 150 mM NaCl, 0.05% Tween20, 1% DMSO, pH 7.4). Interaction models were fitted globally to the experimental traces, enabling determination of kon, koff and Kd.

For orientation: IC50 means the concentration that gives 50% inhibition. For the compound `Cc1ccc2c(C(=O)NCC(=O)N3[C@H](C#N)C[C@@H]4C[C@@H]43)ccnc2c1` [Example 20, N-(2-((1S,3S,5S)-3-Cyano-2-azabicyclo[3.1.0]hexan-2-yl)-2-oxoethyl)-7-methylquinoline-4-carboxamide], the “hDPP8 Activity at Compound Concentration 10 μM” value in data set [1] is on record as “Not Active”. In the data set on Human Hepatocytes (hHep), the “hHep CLint” value is less than 1 μL/min/1E6. The IC50 in data set [2] is more than 10 nM; in data set [3] it was 0.48 nM; in data set [4] it was more than 10 nM; against hFAP, less than 1.6 nM; in [5] it was 31000 nM; on FAP Human Plasma it was 1.6 nM. Further, the “rHeps CLint” value with Rat Hepatocytes (rHep) is less than 2 μL/min/1E6.
As usually defined, the Kd is the free concentration of one partner at which half of the binding sites on the other are occupied at equilibrium, for simple one-to-one binding. Read a low Kd as tighter binding. Turning to `N#C[C@@H]1C[C@@H]2C[C@@H]2N1C(=O)CNC(=O)c1ccnc2cc(C3(C#N)CC3)ccc12` [Example 40, N-(2-((1S,3S,5S)-3-Cyano-2-azabicyclo[3.1.0]hexan-2-yl)-2-oxoethyl)-7-(1-cyanocyclopropyl)quinoline-4-carboxamide], the equilibrium dissociation constant (Kd) at hFAP (M39-A757) stood at 5.5 nM. In addition, the “hHep CLint” value in the data set on Human Hepatocytes (hHep) is given as less than 1 μL/min/1E6. Moreover, the IC50 was 0.15 nM in [3], 0.49 nM on hFAP, more than 50000 nM in data set [5] and 4.1 nM on FAP Human Plasma. Further, the “rHeps CLint” value in the data set with Rat Hepatocytes (rHep) came out at 2.6 μL/min/1E6.
